Results reported in ChEMBL document CHEMBL4483862, “Open-source discovery of chemical leads for next-generation chemoprotective antimalarials” (2018).

Test system: Plasmodium berghei
Assay: Luciferase/luciferin-expressing antifolate-resistant parasites were used to infect a culture of HepG2 cells that were pre-incubated with compounds. Infected hepatocytes emit light due to the luciferase reaction. Assay results are presented as the percent inhibition of light emission compared to control. […]
Type: functional
Conditions: sporozoite; for IC90: read-out: LUCIFERASE INFECTION ASSAY - IC90

## Clc1nc(-c2ccccn2)nc2scc(-c3ccccc3)c12
HEPG2TOX_HILL_SLOPE 0.933, HEPG2TOX_R_SQUARED 0.89, PBLUC_HILL_SLOPE 8.14, PBLUC_R_SQUARED 0.197, read-out: LUCIFERASE INFECTION ASSAY - IC50
  IC50: 1280 nM
  IC90: 1680 nM

## CN(C)c1ccc(-c2cnc3cnc(-c4ccc(O)cc4)cn23)cc1
HEPG2TOX_HILL_SLOPE 0.921, HEPG2TOX_R_SQUARED 0.948, PBLUC_HILL_SLOPE 0.805, PBLUC_R_SQUARED 0.912, read-out: LUCIFERASE INFECTION ASSAY - IC50
  IC50: 115 nM
  IC90: 1760 nM

## Cn1ccc2cc(-c3cn4c(-c5cccc(CO)c5)cnc4cn3)ccc21
HEPG2TOX_HILL_SLOPE 0.928, HEPG2TOX_R_SQUARED 0.91, PBLUC_HILL_SLOPE 2.22, PBLUC_R_SQUARED 0.697, read-out: LUCIFERASE INFECTION ASSAY - IC50
  IC50: 452 nM
  IC90: 1220 nM

## OCCCNc1ccc2ncc(-c3cccc(C(F)(F)F)c3)n2n1
HEPG2TOX_HILL_SLOPE 0.946, HEPG2TOX_R_SQUARED 0.925, PBLUC_HILL_SLOPE 15.6, PBLUC_R_SQUARED 0.717, read-out: LUCIFERASE INFECTION ASSAY - IC50
  IC50: 1050 nM
  IC90: 1210 nM

## CNc1snc(C)c1C(=O)OCc1cc(C(=O)OC)c(C)o1
HEPG2TOX_HILL_SLOPE 0.962, HEPG2TOX_R_SQUARED 0.934, PBLUC_HILL_SLOPE 25, PBLUC_R_SQUARED 0.565, read-out: LUCIFERASE INFECTION ASSAY - IC50
  IC50: 2200 nM
  IC90: 2410 nM

## O=C1Nc2ccc(F)cc2/C1=N/NC(=S)NC1CC2C=CC1C2 (configuration not stated)
HEPG2TOX_HILL_SLOPE 0.956, HEPG2TOX_R_SQUARED 0.854, PBLUC_HILL_SLOPE 4.64, PBLUC_R_SQUARED 0.779, read-out: LUCIFERASE INFECTION ASSAY - IC50
  IC50: 860 nM
  IC90: 1380 nM

## O=C(NNC(=O)c1ccccc1OCC1CCCO1)c1cc2ccccc2cc1O (configuration not stated)
HEPG2TOX_HILL_SLOPE 0.895, HEPG2TOX_R_SQUARED 0.962, PBLUC_HILL_SLOPE 14.5, PBLUC_R_SQUARED 0.545, read-out: LUCIFERASE INFECTION ASSAY - IC50
  IC50: 3450 nM
  IC90: 4010 nM

## Fc1ccc(NC(=S)N2CCN(c3ncnc4sccc34)CC2)c(F)c1
HEPG2TOX_HILL_SLOPE 0.955, HEPG2TOX_R_SQUARED 0.941, PBLUC_HILL_SLOPE 17.3, PBLUC_R_SQUARED 0.219, read-out: LUCIFERASE INFECTION ASSAY - IC50
  IC50: 2620 nM
  IC90: 2970 nM

## CCOC(=O)c1[nH]c(C)c(C(=O)OCC(=O)Nc2ccc(Cl)cn2)c1C
HEPG2TOX_HILL_SLOPE 0.952, HEPG2TOX_R_SQUARED 0.987, PBLUC_HILL_SLOPE 2.41, PBLUC_R_SQUARED 0.555, read-out: LUCIFERASE INFECTION ASSAY - IC50
  IC50: 1170 nM
  IC90: 2910 nM

## O=C1CCCN1c1ccc(S(=O)(=O)Oc2ccc(Cl)cc2)cc1
HEPG2TOX_HILL_SLOPE 0.952, HEPG2TOX_R_SQUARED 0.945, PBLUC_HILL_SLOPE 2.14, PBLUC_R_SQUARED 0.73, read-out: LUCIFERASE INFECTION ASSAY - IC50
  IC50: 1040 nM
  IC90: 2910 nM

## CCc1ccc(-n2nnnc2-c2cnc(N)nc2-c2ccccc2)cc1
HEPG2TOX_HILL_SLOPE 0.931, HEPG2TOX_R_SQUARED 0.943, PBLUC_HILL_SLOPE 1.76, PBLUC_R_SQUARED 0.648, read-out: LUCIFERASE INFECTION ASSAY - IC50
  IC50: 463 nM
  IC90: 1610 nM

## CCOc1cccc(-c2cn3c(-c4ccc(CO)cc4)cnc3cn2)c1
HEPG2TOX_HILL_SLOPE 0.91, HEPG2TOX_R_SQUARED 0.879, PBLUC_HILL_SLOPE 2.96, PBLUC_R_SQUARED 0.698, read-out: LUCIFERASE INFECTION ASSAY - IC50
  IC50: 395 nM
  IC90: 828 nM

## CCOc1ccc(C(=O)CN(C#N)C(=O)c2ccccc2)cc1
HEPG2TOX_HILL_SLOPE 0.95, HEPG2TOX_R_SQUARED 0.917, PBLUC_HILL_SLOPE 159, PBLUC_R_SQUARED 0.609, read-out: LUCIFERASE INFECTION ASSAY - IC50
  IC50: 747 nM
  IC90: 758 nM

## CC(C)Cn1c(N)c(C(=O)CSc2nc(=O)c3c4c(sc3[nH]2)CCCC4)c(=O)n(C)c1=O
HEPG2TOX_HILL_SLOPE 0.911, HEPG2TOX_R_SQUARED 0.885, PBLUC_HILL_SLOPE 2, PBLUC_R_SQUARED 0.249, read-out: LUCIFERASE INFECTION ASSAY - IC50
  IC50: 5580 nM
  IC90: > 10000 nM

## CC(C)c1cc(C(=O)Nc2nnc3ccccn23)c2cnn(C(C)C)c2n1
HEPG2TOX_HILL_SLOPE 0.96, HEPG2TOX_R_SQUARED 0.828, PBLUC_HILL_SLOPE 9.22, PBLUC_R_SQUARED 0.235, read-out: LUCIFERASE INFECTION ASSAY - IC50
  IC50: 3400 nM
  IC90: 4310 nM

## CC1CCC2(CC1)NC(=O)N(Cc1ccc(C(=O)Nc3ccccc3)cc1)C2=O (configuration not stated)
HEPG2TOX_HILL_SLOPE 0.925, HEPG2TOX_R_SQUARED 0.33, PBLUC_HILL_SLOPE 1.44, PBLUC_R_SQUARED 0.482, read-out: LUCIFERASE INFECTION ASSAY - IC50
  IC50: 2560 nM
  IC90: > 10000 nM

## N#Cc1c(Cl)cccc1N1CCC(C#N)CC1
HEPG2TOX_HILL_SLOPE 0.959, HEPG2TOX_R_SQUARED 0.904, PBLUC_HILL_SLOPE 1.25, PBLUC_R_SQUARED 0.0637, read-out: LUCIFERASE INFECTION ASSAY - IC50
  IC50: 6330 nM
  IC90: > 13400 nM

## COc1ccc2[nH]c(C(=O)Nc3ccc(F)cc3)c(C)c2c1
HEPG2TOX_HILL_SLOPE 0.946, HEPG2TOX_R_SQUARED 0.313, PBLUC_HILL_SLOPE 15.5, PBLUC_R_SQUARED 0.583, read-out: LUCIFERASE INFECTION ASSAY - IC50
  IC50: 3720 nM
  IC90: 4280 nM

## Cc1ccc(O)c(C(=O)c2cnc3cc4c(cc3c2)OCCO4)c1
HEPG2TOX_HILL_SLOPE 0.914, HEPG2TOX_R_SQUARED 0.945, PBLUC_HILL_SLOPE 1.42, PBLUC_R_SQUARED 0.804, read-out: LUCIFERASE INFECTION ASSAY - IC50
  IC50: 172 nM
  IC90: 810 nM

## Cc1cc(C(=O)C(C)OC(=O)c2ccc(S(=O)(=O)NCc3ccco3)cc2)c(C)n1-c1ccc(Cl)cc1 (configuration not stated)
HEPG2TOX_HILL_SLOPE 0.938, HEPG2TOX_R_SQUARED 0.54, PBLUC_HILL_SLOPE 4.63, PBLUC_R_SQUARED 0.33, read-out: LUCIFERASE INFECTION ASSAY - IC50
  IC50: 7490 nM
  IC90: > 10000 nM

## O=S(=O)(NCCNc1ncnc2ccccc12)c1cccc(Cl)c1
HEPG2TOX_HILL_SLOPE 0.939, HEPG2TOX_R_SQUARED 0.791, read-out: LUCIFERASE INFECTION ASSAY - IC50
  IC50: > 10000 nM
  IC90: > 10000 nM

## CCN(CC)S(=O)(=O)c1cccc(-c2nnc(SCc3nc(=O)c4cccc(C)c4[nH]3)n2CC(C)C)c1
HEPG2TOX_HILL_SLOPE 0.901, HEPG2TOX_R_SQUARED 0.0979, read-out: LUCIFERASE INFECTION ASSAY - IC50
  IC50: > 10000 nM
  IC90: > 10000 nM

## CCOc1ccc(CN(C)CC(=O)NCCc2ccc(S(N)(=O)=O)cc2)cc1
HEPG2TOX_HILL_SLOPE 0.961, HEPG2TOX_R_SQUARED 0.961, PBLUC_HILL_SLOPE 1.57, PBLUC_R_SQUARED 0.525, read-out: LUCIFERASE INFECTION ASSAY - IC50
  IC50: 3650 nM
  IC90: > 10000 nM

## C=CCN(c1ccccc1)S(=O)(=O)c1cc(C(=O)NCC2(N3CCCCC3)CCCCC2)ccc1Cl
HEPG2TOX_HILL_SLOPE 0.94, HEPG2TOX_R_SQUARED 0.4, PBLUC_HILL_SLOPE 1.67, PBLUC_R_SQUARED 0.0797, read-out: LUCIFERASE INFECTION ASSAY - IC50
  IC50: 5220 nM
  IC90: > 10000 nM

## CN(C)c1ccccc1-c1cnc2sc(NCCc3ccncc3)nn12
HEPG2TOX_HILL_SLOPE 0.921, HEPG2TOX_R_SQUARED 0.497, read-out: LUCIFERASE INFECTION ASSAY - IC50
  IC50: > 9050 nM
  IC90: > 9050 nM

## Cc1cc(C=C2Sc3ccccc3N2C)cc(C)[n+]1C(C)C1CC2CCC1C2 (configuration not stated)
HEPG2TOX_HILL_SLOPE 0.905, HEPG2TOX_R_SQUARED 0.888, PBLUC_HILL_SLOPE 1.95, PBLUC_R_SQUARED 0.822, read-out: LUCIFERASE INFECTION ASSAY - IC50
  IC50: 190 nM
  IC90: 589 nM

## CC(=O)c1ccccc1OCCOC(=O)/C(C#N)=C/c1cc(C)n(CCC(C)C)c1C
HEPG2TOX_HILL_SLOPE 0.948, HEPG2TOX_R_SQUARED 0.676, PBLUC_HILL_SLOPE 14.8, PBLUC_R_SQUARED 0.615, read-out: LUCIFERASE INFECTION ASSAY - IC50
  IC50: 1480 nM
  IC90: 1720 nM

## CN(C)c1nc2cc(C(=O)Nc3ccccc3OC(F)F)sc2n1-c1ccccc1
HEPG2TOX_HILL_SLOPE 0.955, HEPG2TOX_R_SQUARED 0.898, PBLUC_HILL_SLOPE 1.96, PBLUC_R_SQUARED 0.521, read-out: LUCIFERASE INFECTION ASSAY - IC50
  IC50: 803 nM
  IC90: 2470 nM

## CC(=O)Nc1ccc(Nc2nc3cc(S(=O)(=O)Nc4cccc(Cl)c4)ccc3o2)cc1
HEPG2TOX_HILL_SLOPE 0.957, HEPG2TOX_R_SQUARED 0.862, PBLUC_HILL_SLOPE 2.24, PBLUC_R_SQUARED 0.74, read-out: LUCIFERASE INFECTION ASSAY - IC50
  IC50: 3740 nM
  IC90: 9970 nM

## C1=C(c2c[nH]c3ncccc23)CCN(c2ncnc3n[nH]cc23)C1
HEPG2TOX_HILL_SLOPE 0.924, HEPG2TOX_R_SQUARED 0.995, PBLUC_HILL_SLOPE 2.5, PBLUC_R_SQUARED 0.123, read-out: LUCIFERASE INFECTION ASSAY - IC50
  IC50: 7500 nM
  IC90: > 10000 nM

## O=C(Nc1nc2ccccn2c1C(=O)NC1CCCC1)c1ccc(Cl)cc1
HEPG2TOX_HILL_SLOPE 0.927, HEPG2TOX_R_SQUARED 0.795, PBLUC_HILL_SLOPE 2.2, PBLUC_R_SQUARED 0.668, read-out: LUCIFERASE INFECTION ASSAY - IC50
  IC50: 447 nM
  IC90: 1210 nM
